≈ marks a conversion by molar mass, not a printed value. One block for each compound: values may come before it. *1 amine or outer side, *2 acyl side, *3 side chain or, on linkers, in order; H or OH if unused. Where a SMILES comes first, the peptide text is derived from it. [ ]: non-standard residue; d: D form. X2 = CC[C@H](C)C[C@H](C)C[C@H](C)C[C@H](N[*:1])C(=O)[*:2]; X1 = CC[C@@H](C)[C@@H](O[*:1])C(=O)[*:2]; NMeVal(β-OH) = CN[C@H](C(=O)O)C(C)(C)O; aIle = CC[C@@H](C)[C@H](N)C(=O)O; NMeV = CN[C@H](C(=O)O)C(C)C; Sar = CNCC(=O)O
What was measured:
[1] = system: Candida parapsilosis 9; experiment: Antifungal MIC80 assay, clinical yeast isolates
[2] = system: Candida albicans 5; experiment: Antifungal MIC80 assay, clinical yeast isolates
[3] = system: Aspergillus niger FGSC A732; experiment: Antifungal MIC80/MFC assay, fungal pathogen panel
[4] = system: Candida albicans ATCC 10231; experiment: Antifungal MIC80/MFC assay, fungal pathogen panel; details: ATCC10231
[5] = system: Candida albicans SC5314; experiment: Effect of serum on antifungal activity (MIC80); format: cell-based
Protocol: (§1) Given that compound 1 contains a large number of hydrophobic amino acid residues that might promote non-specific protein binding resulting in a loss of in vivo activity, the efficacy of the compound was tested in the presence of blood serum against four fungal pathogens (C. albicans, C. auris, C. neoformans, and A. fumigatus) (Table 3).

[6] = system: Candida auris 381; experiment: Effect of serum on antifungal activity (MIC80); format: cell-based
Protocol: as §1

[7] = system: Aspergillus fumigatus ATCC MYA-3627; experiment: Effect of serum on antifungal activity (MIC80); format: cell-based
Protocol: as §1

[8] = system: Cryptococcus neoformans H99; experiment: Effect of serum on antifungal activity (MIC80); format: cell-based
Protocol: as §1

[9] = system: Candida lusitaniae 398; experiment: Antifungal MIC80 assay, clinical yeast isolates
[10] = system: Kodameae ohmeri 396; experiment: Antifungal MIC80 assay, clinical yeast isolates
[11] = system: Candida auris 385; experiment: Antifungal MIC80 assay, clinical yeast isolates
[12] = system: Candida duobushaemulonii 392; experiment: Antifungal MIC80 assay, clinical yeast isolates
[13] = system: Candida auris 389; experiment: Antifungal MIC80 assay, clinical yeast isolates
[14] = system: Candida parapsilosis 15; experiment: Antifungal MIC80 assay, clinical yeast isolates
[15] = system: Mucor circinelloides 235C7; experiment: Antifungal MIC80/MFC assay, fungal pathogen panel
[16] = system: Candida tropicalis 13; experiment: Antifungal MIC80 assay, clinical yeast isolates
[17] = system: Candida auris 383; experiment: Antifungal MIC80 assay, clinical yeast isolates
[18] = system: Aspergillus terreus 191A6; experiment: Antifungal MIC80/MFC assay, fungal pathogen panel
[19] = system: Candida kefyr 12; experiment: Antifungal MIC80 assay, clinical yeast isolates
[20] = system: Candida duobushaemulonii 394; experiment: Antifungal MIC80 assay, clinical yeast isolates
[21] = system: Candida albicans 3; experiment: Antifungal MIC80 assay, clinical yeast isolates
[22] = system: Candida glabrata 22; experiment: Antifungal MIC80 assay, clinical yeast isolates
[23] = system: Candida auris 381; experiment: Antifungal MIC80 assay, clinical yeast isolates
[24] = system: Candida parapsilosis 28; experiment: Antifungal MIC80 assay, clinical yeast isolates
[25] = system: Candida parapsilosis 7; experiment: Antifungal MIC80 assay, clinical yeast isolates
[26] = system: Saccharomyces cerevisiae 399; experiment: Antifungal MIC80 assay, clinical yeast isolates
[27] = system: Candida glabrata 4; experiment: Antifungal MIC80 assay, clinical yeast isolates
[28] = system: Candida auris 387; experiment: Antifungal MIC80 assay, clinical yeast isolates
[29] = system: Aspergillus fumigatus NRRL5109; experiment: Antifungal MIC80/MFC assay, fungal pathogen panel
[30] = system: Aspergillus fumigatus NRRL6113; experiment: Antifungal MIC80/MFC assay, fungal pathogen panel
[31] = system: Fusarium solani 243G2; experiment: Antifungal MIC80/MFC assay, fungal pathogen panel
[32] = system: Saccharomyces cerevisiae 400; experiment: Antifungal MIC80 assay, clinical yeast isolates
[33] = system: Mycosphaerella populorum; experiment: MIC/MFC against phytopathogenic (endophytic) fungi; details: Sphaerulina musiva
[34] = 0% serum (v/v) in growth medium
[35] = 5% serum (v/v) in growth medium
[36] = 10% serum (v/v) in growth medium

MIC80 ([1]; Candida parapsilosis 9): 2.5 µM (≈ 2.31 µg/mL)
MIC80 [2]: 0.6 µM (≈ 0.554 µg/mL)
MIC80 ([3]; Aspergillus niger FGSC A732): 0.6 µM (≈ 0.554 µg/mL)
MIC80 [4]: 0.6 µM (≈ 0.554 µg/mL)
MIC80 ([5]; Candida albicans SC5314, 0% serum (v/v) in growth medium): 0.6 µM (≈ 0.554 µg/mL)
MIC80 ([5]; Candida albicans SC5314, 5% serum (v/v) in growth medium): <0.15 µM
MIC80 ([5]; Candida albicans SC5314, 10% serum (v/v) in growth medium): <0.15 µM
MIC80 [6, 34]: 2.5 µM (≈ 2.31 µg/mL)
MIC80 [6, 35]: <0.15 µM
MIC80 [6, 36]: 0.3 µM (≈ 0.277 µg/mL)
MIC80 [7, 34]: 2.5 µM (≈ 2.31 µg/mL)
MIC80 [7, 35]: <0.07 µM
MIC80 [7, 36]: 0.15 µM (≈ 0.139 µg/mL)
MIC80 ([8]; Cryptococcus neoformans H99, 0% serum (v/v) in growth medium): 1.25 µM (≈ 1.16 µg/mL)
MIC80 ([8]; Cryptococcus neoformans H99, 5% serum (v/v) in growth medium): <0.15 µM
MIC80 ([8]; Cryptococcus neoformans H99, 10% serum (v/v) in growth medium): <0.15 µM
MIC80 ([9]; Candida lusitaniae 398, multidrug-resistant): 0.6 µM (≈ 0.554 µg/mL)
MIC80 ([10]; Kodameae ohmeri 396, multidrug-resistant): 1.25 µM (≈ 1.16 µg/mL)
MIC80 ([11]; Candida auris 385, multidrug-resistant): 2.5 µM (≈ 2.31 µg/mL)
MIC80 ([12]; Candida duobushaemulonii 392, multidrug-resistant): 5 µM (≈ 4.62 µg/mL)
MIC80 ([13]; Candida auris 389, multidrug-resistant): 5 µM (≈ 4.62 µg/mL)
MIC80 ([14]; Candida parapsilosis 15): 2.5 µM (≈ 2.31 µg/mL)
MIC80 [15]: 1.25 µM (≈ 1.16 µg/mL)
MIC80 [16]: 0.15 µM (≈ 0.139 µg/mL)
MIC80 ([17]; Candida auris 383, multidrug-resistant): 2.5 µM (≈ 2.31 µg/mL)
MIC80 [18]: 2.5 µM (≈ 2.31 µg/mL)
MIC80 ([19]; Candida kefyr 12): 0.3 µM (≈ 0.277 µg/mL)
MIC80 ([20]; Candida duobushaemulonii 394, multidrug-resistant): 5 µM (≈ 4.62 µg/mL)
MIC80 [21]: 0.6 µM (≈ 0.554 µg/mL)
MIC80 ([22]; Candida glabrata 22): 0.3 µM (≈ 0.277 µg/mL)
MIC80 ([23]; Candida auris 381, multidrug-resistant): 1.25 µM (≈ 1.16 µg/mL)
MIC80 ([24]; Candida parapsilosis 28): 1.25 µM (≈ 1.16 µg/mL)
MIC80 ([25]; Candida parapsilosis 7): 2.5 µM (≈ 2.31 µg/mL)
MIC80 ([26]; Saccharomyces cerevisiae 399, multidrug-resistant): 2.5 µM (≈ 2.31 µg/mL)
MIC80 ([27]; Candida glabrata 4): 1.25 µM (≈ 1.16 µg/mL)
MIC80 ([28]; Candida auris 387, multidrug-resistant): 2.5 µM (≈ 2.31 µg/mL)
MIC80 [29]: 2.5 µM (≈ 2.31 µg/mL)
MIC80 [30]: 2.5 µM (≈ 2.31 µg/mL)
MIC80 [31]: 1.25 µM (≈ 1.16 µg/mL)
MIC80 ([32]; Saccharomyces cerevisiae 400, multidrug-resistant): 1.25 µM (≈ 1.16 µg/mL)
Compound: C[C@@H]1[C@H](O)[C@@H](C)/C=C/C=C/C=C/C=C/C=C/C=C/C=C/[C@H](O[C@@H]2O[C@H](C)[C@@H](O)[C@H](N)[C@@H]2O)C[C@@H]2O[C@](O)(C[C@@H](O)C[C@@H](O)[C@H](O)CC[C@@H](O)C[C@@H](O)CC(=O)O[C@H]1C)C[C@H](O)[C@H]2C(=O)O [AMB, amphotericin B]
MFC ([3]; Aspergillus niger FGSC A732): 2.5 µM (≈ 2.31 µg/mL)
MFC [4]: 2.5 µM (≈ 2.31 µg/mL)
MFC [15]: 1.25 µM (≈ 1.16 µg/mL)
MFC [18]: 10 µM (≈ 9.24 µg/mL)
MFC [29]: 5 µM (≈ 4.62 µg/mL)
MFC [30]: 10 µM (≈ 9.24 µg/mL)
MFC [31]: 1.25 µM (≈ 1.16 µg/mL)

Compound: CC[C@H](C)C[C@H](C)C[C@H](C)C[C@@H]1NC(=O)[C@H](C(C)C)N(C)C(=O)[C@@H]([C@H](C)CC)OC(=O)[C@H](C(C)(C)O)N(C)C(=O)[C@H](CC(C)C)NC(=O)[C@H](C(C)C)N(C)C(=O)[C@H]([C@H](C)CC)NC(=O)[C@@H]2CCCN2C(=O)CN(C)C1=O [Compound 1, persephacin] (cyclo(L[NMeVal(β-OH)][X1][NMeV][X2][Sar]P[aIle][NMeV]))
MIC80 ([1]; Lodderomyces parapsilosis, 9): 2.5 µM (≈ 2.69 µg/mL)
MIC80 [2]: 1.25 µM (≈ 1.34 µg/mL)
MFC ([3]; Aspergillus niger, FGSCA732): > 10 µM
MIC80 ([3]; Aspergillus niger, FGSCA732): 1.25 µM (≈ 1.34 µg/mL)
MFC [4]: 1.25 µM (≈ 1.34 µg/mL)
MIC80 [4]: 0.6 µM (≈ 0.645 µg/mL)
MIC80 ([5]; Candida albicans, SC5314, Candida albicans SC5314, 0% serum (v/v) in growth medium): 0.6 µM (≈ 0.645 µg/mL)
MIC80 ([5]; Candida albicans, SC5314, Candida albicans SC5314, 5% serum (v/v) in growth medium): 0.15 µM (≈ 0.161 µg/mL)
MIC80 ([5]; Candida albicans, SC5314, Candida albicans SC5314, 10% serum (v/v) in growth medium): 0.3 µM (≈ 0.323 µg/mL)
MIC80 [6, 35]: 1.25 µM (≈ 1.34 µg/mL)
MIC80 [6, 36]: 1.25 µM (≈ 1.34 µg/mL)
MIC80 ([6]; Candidozyma auris, 0% serum (v/v) in growth medium): 1.25 µM (≈ 1.34 µg/mL)
MIC80 [7, 34]: 2.5 µM (≈ 2.69 µg/mL)
MIC80 [7, 35]: 2.5 µM (≈ 2.69 µg/mL)
MIC80 [7, 36]: 2.5 µM (≈ 2.69 µg/mL)
MIC80 ([8]; Cryptococcus neoformans, H99, Cryptococcus neoformans H99, 0% serum (v/v) in growth medium): 0.6 µM (≈ 0.645 µg/mL)
MIC80 ([8]; Cryptococcus neoformans, H99, Cryptococcus neoformans H99, 5% serum (v/v) in growth medium): < 0.15 µM
MIC80 ([8]; Cryptococcus neoformans, H99, Cryptococcus neoformans H99, 10% serum (v/v) in growth medium): < 0.15 µM
MIC80 ([9]; Clavispora lusitaniae, 398): 2.5 µM (≈ 2.69 µg/mL)
MIC80 [10]; 396: 2.5 µM (≈ 2.69 µg/mL)
MIC80 ([11]; Candidozyma auris, 385): 2.5 µM (≈ 2.69 µg/mL)
MIC80 ([12]; Candidozyma duobushaemuli, 392): 2.5 µM (≈ 2.69 µg/mL)
MIC80 ([13]; Candidozyma auris, 389): 2.5 µM (≈ 2.69 µg/mL)
MIC80 ([14]; Lodderomyces parapsilosis, 15): 2.5 µM (≈ 2.69 µg/mL)
MFC [15]: > 10 µM
MIC80 [15]: > 10 µM
MIC80 [16]: 0.625 µM (≈ 0.672 µg/mL)
MIC80 ([17]; Candidozyma auris, 383): 2.5 µM (≈ 2.69 µg/mL)
MFC [18]: > 10 µM
MIC80 [18]: 2.5 µM (≈ 2.69 µg/mL)
MIC80 ([19]; Kluyveromyces marxianus, 12): 1.25 µM (≈ 1.34 µg/mL)
MIC80 ([20]; Candidozyma duobushaemuli, 394): 2.5 µM (≈ 2.69 µg/mL)
MIC80 [21]: 2.5 µM (≈ 2.69 µg/mL)
MIC80 ([22]; Nakaseomyces glabratus, 22): 0.6 µM (≈ 0.645 µg/mL)
MIC80 ([23]; Candidozyma auris, 381): 2.5 µM (≈ 2.69 µg/mL)
MIC80 ([24]; Lodderomyces parapsilosis, 28): 2.5 µM (≈ 2.69 µg/mL)
MIC80 ([25]; Lodderomyces parapsilosis, 7): 2.5 µM (≈ 2.69 µg/mL)
MIC80 ([26]; Saccharomyces cerevisiae, 399): 2.5 µM (≈ 2.69 µg/mL)
MIC80 ([27]; Nakaseomyces glabratus, 4): 1.25 µM (≈ 1.34 µg/mL)
MIC80 ([28]; Candidozyma auris, 387): 2.5 µM (≈ 2.69 µg/mL)
MFC [29]: 5 µM (≈ 5.38 µg/mL)
MIC80 [29]: 2.5 µM (≈ 2.69 µg/mL)
MFC [33]: 10 µM (≈ 10.8 µg/mL)
MIC [33]: 2.5 µM (≈ 2.69 µg/mL)
MFC [30]: 5 µM (≈ 5.38 µg/mL)
MIC80 [30]: 2.5 µM (≈ 2.69 µg/mL)
MFC [31]: 2.5 µM (≈ 2.69 µg/mL)
MIC80 [31]: 1.25 µM (≈ 1.34 µg/mL)
MIC80 ([32]; Saccharomyces cerevisiae, 400): 2.5 µM (≈ 2.69 µg/mL)
